Assay results: patent publication US20080207645A1, “Pyridothienopyrimidine Derivatives” (priority 2004, published 2008)

Test system: PDE4
Experiment: PDE4 Assay Procedure ([3H]-cAMP SPA)
Assay type: biochemical
Conditions: 15 nM [3H]-cAMP, 1 hour at room temperature, SPA beads
Procedure: Compounds to be tested were resuspended in DMSO at a stock concentration of 1 mM. […] These dilutions were done in 96-well plates. In some cases, plates containing diluted compounds were frozen before being assayed. In these cases, the plates were thawed at room temperature and stirred for 15 minutes.
Ten microliters of the diluted compounds were poured into a “low binding” assay plate. […] The reaction was initiated by adding ten microliters of a solution containing PDE4. The plate was then incubated under stirring for 1 hour at room temperature. After incubation the reaction was stopped with 50 microlitres of SPA beads, and the reaction was allowed to incubate for another 20 minutes at room temperature before measuring radioactivity using standard instrumentation.
The reaction mixture was prepared by adding 90 ml of H2O to 10 ml of 10× assay buffer (500 mM Tris pH 7.5, 83 mM MgCl2, 17 mM EGTA), and 40 microlitres 1 μCi/μL [3H]-cAMP. SPA beads solution was prepared by adding 500 mg to […] H2O for a final concentration of 20 mg/ml beads and 18 mM zinc sulphate.

Row | Compound | IC50 [nM]
1 | CC1(C)Cc2c(c(N3CCOCC3)nc3sc4c(NCCN5CCOCC5)ncnc4c23)CO1 [Example 20, 2,2-Dimethyl-5-morpholin-4-yl-N-(2-morpholin-4-ylethyl)-1,4-dihydro-2H-pyrano[4″,3″:4′,5′]pyrido[3′,2′:4,5]thieno[3,2-d]pyrimidin-8-amine] | 26
2 | CC1(C)Cc2c(c(N3CCCC3)nc3sc4c(NCCN5CCOCC5)ncnc4c23)CO1 [Example 27, 2,2-Dimethyl-5-pyrrolidin-1-yl-N-(2-morpholin-4-ylethyl)-1,4-dihydro-2H-pyrano[4″,3″:4′,5′]pyrido[3′,2′:4,5]thieno[3,2-d]pyrimidin-8-amine] | 23
3 | CC1(C)Cc2c(c(N3CCOCC3)nc3sc4c(NCc5cccnc5)ncnc4c23)CO1 [Example 36, 2,2-dimethyl-5-morpholin-4-yl-N-(pyridin-3-ylmethyl)-1,4-dihydro-2H-pyrano[4″,3″:4′,5′]pyrido[3′,2′:4,5]thieno[3,2-d]pyrimidin-8-amine] | 4.6
4 | CC1(C)Cc2c(c(N3CCOCC3)nc3sc4c(NCc5ccccn5)ncnc4c23)CO1 [Example 37, 2,2-dimethyl-5-morpholin-4-yl-N-(pyridin-2-ylmethyl)-1,4-dihydro-2H-pyrano[4″,3″:4′,5′]pyrido[3′,2′:4,5]thieno[3,2-d]pyrimidin-8-amine] | 21
5 | CCCc1nc2sc3c(NCCN4CCOCC4)ncnc3c2c2c1COC(C)(C)C2 [Example 38, 2,2-dimethyl-N-(2-morpholin-4-ylethyl)-5-propyl-1,4-dihydro-2H-pyrano[4″,3″:4′,5′]pyrido[3′,2′:4,5]thieno[3,2-d]pyrimidin-8-amine] | 19
6 | CC(C)c1nc2sc3c(NCc4ccccn4)ncnc3c2c2c1COC(C)(C)C2 [Example 46, 2,2-Dimethyl-5-isopropyl-N-(pyridin-2-ylmethyl)-1,4-dihydro-2H-pyrano[4″,3″:4′,5′]pyrido[3′,2′:4,5]thieno[3,2-d]pyrimidin-8-amine] | 14
7 | CC1(C)Cc2c(c(N3CCOCC3)nc3sc4c(NCc5ccncc5)ncnc4c23)CO1 [Example 55, 2,2-Dimethyl-5-morpholin-4-yl-N-(pyridin-4-ylmethyl)-1,4-dihydro-2H-pyrano[4″,3″:4′,5′]pyrido[3′,2′:4,5]thieno[3,2-d]pyrimidin-8-amine] | 19
8 | COCCN(C)c1nc2sc3c(NCc4cccnc4)ncnc3c2c2c1COC(C)(C)C2 [Example 59, N-(2-Methoxyethyl)-N,2,2-trimethyl-N-(pyridin-3-ylmethyl)-1,4-dihydro-2H-pyrano[4″,3″:4′,5′]pyrido[3′,2′:4,5]thieno[3,2-d]pyrimidine-5,8-diamine.] | 61
9 | CC1(C)Cc2c(c(N3CCCC3)nc3sc4c(NCc5ccncc5)ncnc4c23)CO1 [Example 71, 2,2-Dimethyl-N-(pyridin-4-ylmethyl)-5-pyrrolidin-1-yl-1,4-dihydro-2H-pyrano[4″,3″:4′,5′]pyrido[3′,2′:4,5]thieno[3,2-d]pyrimidin-8-amine] | 32
10 | CCCc1nc2sc3c(NCc4cccnc4)ncnc3c2c2c1COC(C)(C)C2 [Example 72, 2,2-Dimethyl-5-propyl-N-(pyridin-3-ylmethyl)-1,4-dihydro-2H-pyrano[4″,3″:4′,5′]pyrido[3′,2′:4,5]thieno[3,2-d]pyrimidin-8-amine] | 24
11 | CC(C)Cc1nc2sc3c(NCc4cccnc4)ncnc3c2c2c1COC(C)(C)C2 [Example 74, 5-Isobutyl-2,2-dimethyl-N-(pyridin-3-ylmethyl)-1,4-dihydro-2H-pyrano[4″,3″:4′,5′]pyrido[3′,2′:4,5]thieno[3,2-d]pyrimidin-8-amine] | 22
12 | CCC1(C)Cc2c(c(N3CCOCC3)nc3sc4c(NCc5cccnc5)ncnc4c23)CO1 (stereo not drawn) [Example 80, 2-Ethyl-2-methyl-5-morpholin-4-yl-N-(pyridin-3-ylmethyl)-1,4-dihydro-2H-pyrano[4″,3″:4′,5′]pyrido[3′,2′:4,5]thieno[3,2-d]pyrimidin-8-amine] | 13
